# Laboratory results taken from paper PMC11845477, “Exploring the principles behind antibiotics with limited resistance” (Nature Communications, 2025).
# Like-named read-outs stand apart in the source and are kept apart here.
# Key:
# [1] = test system: A. baumannii ATCC 17978 (SEN) and A. baumannii ATCC BAA-1605 (MDR); test: Frequency-of-resistance (FoR) assay, relative MIC of mutants; format: cell-based, Acinetobacter baumannii; details: for Relative MIC: Acinetobacter baumannii ATCC 17978 (AB-SEN); for MIC: Acinetobacter baumannii, read-out: MIC of evolved line, Acinetobacter baumannii ATCC 17978 (AB-SEN)
# Method: The susceptibility of antibiotics to resistance development was evaluated in two strains of each bacterial species: a multidrug-resistant strain and an antibiotic-sensitive strain of Escherichia coli, Klebsiella pneumoniae, Acinetobacter baumannii, and Pseudomonas aeruginosa. To explore first-step resistance, we previously used a standard protocol for spontaneous frequency-of-resistance analysis (FoR assay) at multiple concentrations of each antibiotic[10],[28],[31]–[33]. […] For all other combinations, approximately 10^10 bacterial cells were exposed to one of each antibiotic on agar plates for two days at concentrations where the given strain is susceptible. We examined resistance levels by contrasting the minimum inhibitory concentration (MICs) of the mutated strains to the original wild-type bacterial strain (i.e., relative MIC).
# To estimate the frequency of spontaneous mutations that confer resistance in a microbial population, we conducted a frequency of resistance (FoR) assay following established protocols[10],[31]–[33]. […] Prior to plating, bacteria were grown overnight in MHB medium at 37 °C and 250 RPM, then centrifuged and washed in MHB. All experiments were performed in triplicate, and plates were incubated at 37 °C for 48 hours. Total colony-forming units (CFUs) were determined by plating appropriate dilutions onto antibiotic-free MHB agar. Resistance frequencies were calculated by dividing the number of resistant colonies by the initial viable cell count. From the plates with the highest antibiotic concentration, ten colonies were selected for MIC determination and whole-genome sequencing.
# (§1) A robotic liquid handling system was used to automatically prepare a 11 to 16-step serial dilution in 384-well microtiter plates (Greiner). A final concentration of 5 × 10^5 bacterial cells per mL were inoculated into each well containing 60 µL MHB medium. Bacterial cultures were incubated at 37 °C with continuous shaking (Infors shaker, 900 rpm with 3 mm throw) for 18 hours (2 replicates from each). Cell growth was monitored by measuring the optical density (OD600 values, using Biotek Synergy microplate reader). MIC was defined as the antibiotic concentration of complete growth inhibition (i.e., OD600 < 0.05). Relative MIC was calculated as follows:1 relativeMIC=MICevolved/MICancestor […]
# Supplementary Figure 3. Resistance levels following the frequency of resistance assay across bacterial strains. The level of resistance was measured as the fold change in relative MIC between evolved and ancestral strains. Data are grouped by bacterial strain (A. baumannii (AB), E. coli (EC), K. pneumoniae (KP), and P. aeruginosa (PA)) and categorized as either multidrug-resistant (MDR) or sensitive (SEN). Each data point represents a laboratory evolved line, and boxplots show the median, first and third quartiles, with whiskers indicating the 5th and 95th percentiles. […]
# analysis was performed using two-sided Dunn’s post-hoc test with Benjamini-Hochberg correction for multiple comparisons (**/ * indicates p < 0.01/ 0.05). For detailed information on antibiotic and bacterial species, see Supplementary Table 1. For mode of action groups, refer to Table 1. Source data are provided as a Source Data file.
# [2] = test system: K. pneumoniae ATCC 10031 (SEN) and K. pneumoniae ATCC 700603 (MDR); test: Adaptive laboratory evolution (ALE), relative MIC of evolved lines; format: cell-based, Klebsiella pneumoniae
# Text: Using the same set of bacterial strains, we initiated adaptive laboratory evolution with the aim to maximize the level of antibiotic resistance in the populations achieved during a longer, but fixed time period.
# An established protocol for adaptive laboratory evolution[46],[73] was followed to propagate populations with the highest resistance levels. Starting with an antibiotic concentration that caused approximately 50% growth inhibition, ten parallel populations for each antibiotic-ancestor strain combination were grown for 72 hours at 37 °C with continuous shaking (300 RPM). MHB broth medium was used unless stated otherwise. After each incubation, 20 µl of each culture was transferred to four new wells containing fresh medium with increasing antibiotic concentrations (0.5×, 1×, 1.5×, and 2.5× the previous concentration) in a chessboard layout to monitor potential cross-contamination. Growth was monitored by measuring OD600 using a Biotek Synergy 2 microplate reader, and only populations grown in the highest drug concentration with an OD600 > 0.2 were transferred further.
# as §1
# Supplementary Figure 4. Resistance levels following adaptive laboratory evolution across bacterial strains. The level of resistance was measured as the fold change in relative MIC between evolved and ancestral strains after ~60 days of adaptive laboratory evolution. Data are grouped by bacterial strain (A. baumannii (AB), E. coli (EC), K. pneumoniae (KP), and P. aeruginosa (PA)) and categorized as either multidrug-resistant (MDR) or sensitive (SEN). Each data point represents a laboratory evolved line, and boxplots show the median, first and third quartiles, with whiskers indicating the 5th and 95th percentiles.
# Statistical analysis was performed using two-sided Dunn’s post-hoc test with Benjamini-Hochberg correction for multiple comparisons (****/ ***/ **/ * indicates p < 0.0001/ 0.001/ 0.01/ 0.05). For detailed information on antibiotic and bacterial species, see Supplementary Table 1. For mode of action groups, refer to Table 1. Source data are provided as a Source Data file.
smiles,measurement,setting,value
Nc1nc(-n2cc(C(=O)O)c(=O)c3cc(F)c(N4CC(O)C4)c(Cl)c32)c(F)cc1F [Delafloxacin],Relative MIC,[1]; evolved line 1 versus ancestor,8
same,Relative MIC,[1]; evolved line 2 versus ancestor,4
same,Relative MIC,[1]; evolved line 3 versus ancestor,8
same,MIC,[1]; evolved line 1,0.5 µg/mL
same,MIC,[1]; evolved line 2,0.25 µg/mL
same,MIC,[1]; evolved line 3,0.5 µg/mL
same,Relative MIC,"[2]; KP-MDR (ATCC 700603), evolved line 2, MIC of evolved line / MIC of ancestor",64
same,Relative MIC,"[2]; KP-MDR (ATCC 700603), evolved line 3, MIC of evolved line / MIC of ancestor",16
same,Relative MIC,"[2]; KP-MDR (ATCC 700603), evolved line 4, MIC of evolved line / MIC of ancestor",32
same,Relative MIC,"[2]; KP-MDR (ATCC 700603), evolved line 5, MIC of evolved line / MIC of ancestor",32
same,Relative MIC,"[2]; KP-MDR (ATCC 700603), evolved line 6, MIC of evolved line / MIC of ancestor",128
same,Relative MIC,"[2]; KP-MDR (ATCC 700603), evolved line 7, MIC of evolved line / MIC of ancestor",128
same,Relative MIC,"[2]; KP-MDR (ATCC 700603), evolved line 8, MIC of evolved line / MIC of ancestor",64
same,Relative MIC,"[2]; KP-MDR (ATCC 700603), evolved line 9, MIC of evolved line / MIC of ancestor",64
same,Relative MIC,"[2]; KP-MDR (ATCC 700603), evolved line 10, MIC of evolved line / MIC of ancestor",64
same,Relative MIC (log10),"[2]; KP-MDR (Klebsiella pneumoniae ATCC 700603), evolved line 2 adapted to the named antibiotic",1.806
same,Relative MIC (log10),"[2]; KP-MDR (Klebsiella pneumoniae ATCC 700603), evolved line 6 adapted to the named antibiotic",2.107
same,Relative MIC (log10),"[2]; KP-MDR (Klebsiella pneumoniae ATCC 700603), evolved line 7 adapted to the named antibiotic",2.107
same,Relative MIC (log10),"[2]; KP-MDR (Klebsiella pneumoniae ATCC 700603), evolved line 8 adapted to the named antibiotic",1.806
same,Relative MIC (log10),"[2]; KP-MDR (Klebsiella pneumoniae ATCC 700603), evolved line 10 adapted to the named antibiotic",1.806
same,Relative MIC,"[2]; KP-SEN (ATCC 10031), evolved line 1, MIC of evolved line / MIC of ancestor",16384
same,Relative MIC,"[2]; KP-SEN (ATCC 10031), evolved line 2, MIC of evolved line / MIC of ancestor",8192
same,Relative MIC,"[2]; KP-SEN (ATCC 10031), evolved line 3, MIC of evolved line / MIC of ancestor",16384
same,Relative MIC,"[2]; KP-SEN (ATCC 10031), evolved line 4, MIC of evolved line / MIC of ancestor",8192
same,Relative MIC,"[2]; KP-SEN (ATCC 10031), evolved line 5, MIC of evolved line / MIC of ancestor",16384
same,Relative MIC,"[2]; KP-SEN (ATCC 10031), evolved line 6, MIC of evolved line / MIC of ancestor",16384
same,Relative MIC,"[2]; KP-SEN (ATCC 10031), evolved line 7, MIC of evolved line / MIC of ancestor",8192
same,Relative MIC,"[2]; KP-SEN (ATCC 10031), evolved line 8, MIC of evolved line / MIC of ancestor",65536
same,Relative MIC,"[2]; KP-SEN (ATCC 10031), evolved line 9, MIC of evolved line / MIC of ancestor",65536
same,Relative MIC (log10),"[2]; KP-SEN (Klebsiella pneumoniae ATCC 10031), evolved line 1 adapted to the named antibiotic",4.214
same,Relative MIC (log10),"[2]; KP-SEN (Klebsiella pneumoniae ATCC 10031), evolved line 3 adapted to the named antibiotic",4.214
same,Relative MIC (log10),"[2]; KP-SEN (Klebsiella pneumoniae ATCC 10031), evolved line 7 adapted to the named antibiotic",3.913
same,Relative MIC (log10),"[2]; KP-SEN (Klebsiella pneumoniae ATCC 10031), evolved line 8 adapted to the named antibiotic",4.816
same,Relative MIC (log10),"[2]; KP-SEN (Klebsiella pneumoniae ATCC 10031), evolved line 9 adapted to the named antibiotic",4.816
same,Relative MIC,"[2]; Klebsiella pneumoniae ATCC 10031 (KP-SEN), evolved line 1",16384
same,Relative MIC,"[2]; Klebsiella pneumoniae ATCC 10031 (KP-SEN), evolved line 2",8192
same,Relative MIC,"[2]; Klebsiella pneumoniae ATCC 10031 (KP-SEN), evolved line 3",16384
same,Relative MIC,"[2]; Klebsiella pneumoniae ATCC 10031 (KP-SEN), evolved line 4",8192
same,Relative MIC,"[2]; Klebsiella pneumoniae ATCC 10031 (KP-SEN), evolved line 5",16384
same,Relative MIC,"[2]; Klebsiella pneumoniae ATCC 10031 (KP-SEN), evolved line 6",16384
same,Relative MIC,"[2]; Klebsiella pneumoniae ATCC 10031 (KP-SEN), evolved line 7",8192
same,Relative MIC,"[2]; Klebsiella pneumoniae ATCC 10031 (KP-SEN), evolved line 8",65536
same,Relative MIC,"[2]; Klebsiella pneumoniae ATCC 10031 (KP-SEN), evolved line 9",65536
same,Relative MIC,"[2]; Klebsiella pneumoniae ATCC 700603 (KP-MDR), evolved line 2",64
same,Relative MIC,"[2]; Klebsiella pneumoniae ATCC 700603 (KP-MDR), evolved line 3",16
same,Relative MIC,"[2]; Klebsiella pneumoniae ATCC 700603 (KP-MDR), evolved line 4",32
same,Relative MIC,"[2]; Klebsiella pneumoniae ATCC 700603 (KP-MDR), evolved line 5",32
same,Relative MIC,"[2]; Klebsiella pneumoniae ATCC 700603 (KP-MDR), evolved line 6",128
same,Relative MIC,"[2]; Klebsiella pneumoniae ATCC 700603 (KP-MDR), evolved line 7",128
same,Relative MIC,"[2]; Klebsiella pneumoniae ATCC 700603 (KP-MDR), evolved line 8",64
same,Relative MIC,"[2]; Klebsiella pneumoniae ATCC 700603 (KP-MDR), evolved line 9",64
same,Relative MIC,"[2]; Klebsiella pneumoniae ATCC 700603 (KP-MDR), evolved line 10",64
